{"source": "patent US20230355498A1", "about": "“HAIR GROWTH AGENT” (ADJUVANT HOLDINGS CO., LTD., priority 2020, published 2023)", "key": {"[1]": {"tested_on": "skin samples derived from mouse dorsal body hair skin (C57BL/6N) grafted onto Balb/c nu/nu mice", "test": "Hair growth activity: hair shaft length follow-up at transplanted skin samples after topical application", "format": "in vivo", "experimental": "C57BL/6N mice (male) and Balb/c nu/nu mice (female) were purchased from Japan SLC, Inc.(Japan) and bred, and were thereafter made available for the following testing. Note that the testing and breeding of animals complied with pertinent laws, regulations, ordinances, and guidelines, and was performed with the approval of the Experimental Ethics Review Board of the Institute of Physical and Chemical Research.\nThe following reagents were respectively prepared. • Placebo: 60% aqueous ethanol solution • Working Example 1: 0.05% solution of palmitoyl • dipeptide-5 diaminohydroxybutyrate (3) Preparation of Skin Samples Derived from Mouse Dorsal Body Hair Skin\nTo collect dorsal body hair skin in the form of anagen stage VI skin 12 to 14 days following depilation, C57BL/6N mice of age 7 to 8 weeks were depilated at locations where dorsal body hair skin was intended to be collected, and were bred for 12 to 14 days. The depilated C57BL/6N mice were thereafter euthanized by cervical dislocation, following which a suitable amount of dorsal body hair skin was collected from the locations at which dorsal body hair skin was intended to be collected.\nThe collected skin was immersed in DMEM culture medium (hereinafter “DMEM 10”) which contained 10 mM HEPES, 10% fetal bovine serum, and 1% penicillin/streptomycin solution. The collected dorsal body hair skin was grasped with bent-nose curved tweezers and was treated by immersion for 10 seconds in a sterilizing solution. Sterilization treatment was performed by carrying out treatment with 7% povidone iodine solution two times, treatment with PBS (-) three times, and treatment with DMEM 10 two times, in this order, with fresh solutions respectively being used each time. Following sterilization treatment, these were immersed in clean DMEM 10.\nFollowing sterilization treatment, the dorsal body hair skin was cut into pieces and formed into blocks. The transparent connective tissue which adhered to the cutaneous muscle layer of the skin was excised therefrom using curved scissors, and hair groups were cut into rectangular strips in parallel fashion with respect to the direction of the wave of the hair. At this time, these were cut into blocks such that there were 6 rows of hair follicles along the long axis, adjustment having been carried out so that there were 5 rows of hair follicles along the short axis.\nThe skin samples derived from dorsal body hair skin that were prepared in accordance with the foregoing were grafted onto Balb/c nu/nu mice of age 4 to 6 weeks.\nMore specifically, mice were anesthetized in the usual way using isoflurane gas. The dorsal area of the mice was then disinfected using 7% povidone iodine solution, following which the mice were made to assume a naturally recumbent posture. In addition, a Mani ophthalmic knife (Mani, Inc.; Japan) was used to pierce the skin at the dorsal area of the mice, the grafts which were formed extending from the epidermal layer of the skin to the subdermal layer. The skin samples derived from dorsal body hair skin were inserted into the grafts formed thereat in such fashion as to cause the hair groups to be directed toward the body surface side of the grafts. Skin sample transplanted depth was adjusted so as to cause the top portion of the hair group to be in a state such that it was exposed at the top portion of the graft. To protect the grafts, Nurseban (registered trademark) (Sunplanet Co., Ltd.; Japan) and surgical tape (3M Japan Limited; Japan) were then used as protective tape to cover the grafts at which the skin samples derived from dorsal body hair skin had been transplanted. The protective tape was removed 5 to 7 days following transplantation, and survival of the transplanted skin samples derived from dorsal body hair skin was determined by visual inspection or digital microscopy (Keyence Corporation: Japan), after which follow-up observation was carried out.\nFor the first hair cycle, 60% aqueous ethanol solution was applied thereto as placebo. […]"}, "[2]": {"tested_on": "hair shafts from skin samples transplanted in Balb/c nu/nu mice", "test": "Hair-diameter-increasing activity: hair shaft diameter of zigzag hairs that completed the second cycle", "format": "in vivo, mouse", "experimental": "Measurement of increase in hair diameter was carried out using hair shafts that had completed the second cycle at the foregoing Exemplary Test 1. Of the hair shafts that were collected, three zigzag hairs were used for measurement of increase in hair diameter. Three locations were selected in regions where diameter was large in the central portions thereof using a square 100 μm on a side. For each of the selected regions, five different locations were further selected, and hair shaft diameter of the zigzag hairs thereat was measured to evaluate the degree to which increase in hair diameter had occurred."}, "[3]": {"tested_on": "human dermal papilla cells", "test": "Dermal papilla cell growth promotion (Cell Count Reagent SF, absorbance 450 nm)", "format": "cell-based", "conditions": "FIG. 3", "experimental": "Human dermal papilla cells (Catalog No. CA602t05a; derived from person; Toyobo Co., Ltd. (Japan)) were purchased, testing and evaluation being carried out with maintenance and culture of cells being performed as described in the protocol.\nAs drugs for testing, drug solutions consisting of culture medium for human dermal papilla cells containing palmitoyl dipeptide-5 diaminohydroxybutyrate in the following respective concentrations (final concentrations) were prepared, and these were used. • Working Example 1: 11.54709375 μM • Working Example 2: 23.0941875 μM • Working Example 3: 46.188375 μM • Working Example 4: 92.37675 μM • Working Example 5: 184.7535 μM • Working Example 6: 369.507 μM\nA 96-well plate was seeded with human dermal papilla cells so as to obtain 1×10^3 thereof per well. […] After this had been added thereto, absorbance (measurement wavelength 450 nm; reference wavelength 620 nm) of the culture supernatant was measured. Based on these values, the cell growth rates at the respective wells were calculated, at which time the cell growth rate of the control group at which nothing had been added was taken to be 100%."}, "FGF-7 gene": {"tested_on": "FGF-7 gene", "test": "FGF-7 gene expression in human dermal papilla cells (real-time PCR, GAPDH internal standard)", "format": "cell-based", "conditions": "24 hours, FIG. 4", "experimental": "Testing and evaluation were carried out with maintenance and culture of human dermal papilla cells being performed in the same manner as at Exemplary Test 3, above.\nAs drugs for testing, drug solutions of the following respective concentrations (final concentrations) were prepared and used. • Comparative Example 1: 100 μM adenosine • Working Example 1: 1 μM palmitoyl dipeptide-5 diaminohydroxybutyrate • Working Example 2: 10 μM palmitoyl dipeptide-5 diaminohydroxybutyrate • Working Example 3: 300 μM palmitoyl dipeptide-5 diaminohydroxybutyrate\nA 24-well plate was seeded with human dermal papilla cells so as to obtain 6×10^3 thereof per well. […]\nFollowing culture, total RNA was extracted from the respective wells and was recovered, and this was reverse-transcribed into cDNA. […] The GAPDH gene was used as an internal standard, the amount of FGF-7 gene expression being calculated relative to the negative control group.\nA FastGene RNA Basic Kit (Catalog No. FG-80250; Nippon Genetics Co., Ltd. (Japan)) was used to recover total RNA from cells. […] Concentration of the recovered RNA was measured using a NanoDrop Lite (Catalog No. ND-LITE; Thermo Fisher Scientific K.K.), and this was stored at −80° C. until the following cDNA creation procedure.\nA FastGene scriptase II cDNA synthesis 5× Ready Mix (Catalog No. NE-LS641; Nippon Genetics Co., Ltd. (Japan)) was used to synthesize cDNA. […]"}, "[4]": {"conditions": "0.05% solution, second hair cycle vs placebo applied in first hair cycle"}, "[5]": {"conditions": "solution containing 0.05%, applied at transplanted skin samples in mice"}}, "data": [{"substance": "palmitoyl dipeptide-5 diaminohydroxybutyrate", "values": [{"measurement": "Hair shaft elongation rate (mm/day)", "setting": "[1]; 0.05% solution applied topically, second hair cycle, placebo (first hair cycle) 0.38 ± 0.06", "result": "0.39 ± 0.06", "unit": "mm/day"}, {"measurement": "Maximum hair shaft length (mm)", "setting": "[1]; 0.05% solution applied topically, second hair cycle, placebo (first hair cycle) 4.9 ± 0.4, * p<0.05", "result": "5.2 ± 0.2 * mm"}, {"measurement": "Hair shaft elongation rate: Percent change relative to reference data", "setting": "[1]; [4]", "result": 100.63, "unit": "%"}, {"measurement": "Maximum hair shaft length: Percent change relative to reference data", "setting": "[1]; [4]", "result": 105.19, "unit": "%"}, {"measurement": "Hair growth activity (in words)", "setting": "[1]; solution containing 0.05%", "result": "exhibit hair growth activity"}, {"measurement": "Hair shaft elongation rate as compared with reference data (in words)", "setting": "[1]; [5]", "result": "improvement in hair shaft elongation rate"}, {"measurement": "Maximum hair shaft length as compared with reference data (in words)", "setting": "[1]; [5]", "result": "significant improvement"}, {"measurement": "Hair diameter as compared with 60% aqueous ethanol control (in words)", "setting": "[2]; hair shafts which had completed the second cycle", "result": "clear increase in hair diameter"}, {"measurement": "Hair shaft diameter: Percent increase (%)", "setting": "[2]; second hair cycle vs placebo applied in first hair cycle", "result": 124, "unit": "%"}, {"measurement": "Hair shaft diameter (μm)", "setting": "[2]; zigzag hairs, second hair cycle, 0.05% solution, placebo (first hair cycle) 18.5 ± 3.1, ** p<0.01", "result": "22.9 ± 2.5 ** μm"}, {"measurement": "Cell growth rate as compared with control group at which nothing had been added (control = 100%)", "setting": "[3]; 11.54709375 to 369.507 μM (Working Examples 1 to 6), 24, 48 or 72 hours", "result": "increase in cell growth rate"}, {"measurement": "Concentration dependence of cell growth", "setting": "[3]; 11.54709375 to 369.507 μM, peak at concentration of Working Example 5 (184.7535 μM)", "result": "induced cell growth in concentration-dependent fashion"}, {"measurement": "Amount of expression of the FGF-7 gene as compared with control group at which nothing had been added", "setting": "FGF-7 gene; 1 μM and 10 μM (Working Examples 1 and 2)", "result": "increase in the amount of expression of the FGF-7 gene"}, {"measurement": "Amount of expression of the FGF-7 gene compared with 100 μM adenosine (Comparative Example 1)", "setting": "FGF-7 gene; increasing the amount added", "result": "greater than that which was produced as a result of action of adenosine"}]}]}
